Measured values as given in patent US6153589A, “2,3-epoxy alcohols, acids and derivatives as anti retroviral chemotherapeutic agents” (The United States of America as represented by the …, priority 1992, dated 2000).
Where two headings read alike, the source gives them in different places.

How the values were obtained:
HIV1 IIIb = experiment: microbe, parasite or virus in culture; type: cell-based; conditions: Human immunodeficiency virus 1, IIIB; for viability at 10 µg/mL: 10 ug/ml; for viability at 0.1 µg/mL: 0.1 ug/ml; for viability at 56.7 µg/mL: 56.7 ug/ml; for viability at 48.4 µg/mL: 48.4 ug/ml; for viability at 2.4 µg/mL: 2.4 ug/ml
Text: In-vitro Screening Anti--HIV XTT Assay
This assay, which is available to the public by the National Cancer Institute, utilizes colorimetry based on the production of a colored formazin from a tetrazolium salt by viable cells, to develop a safe, rapid and quantitative measure of HIV cytopathology. The assay is a modification of the previously described screening method for the detection of anti-tumor drug cytotoxicity (D. A. Scudiero, et al, Cancer Res, 48, 4827-4833 (1988)). It involves the plating of susceptible human "host" cells with and without virus in microculture plates, adding various concentrations of the respective test compounds, incubating the plates for seven days, during which time infected, non-drug treated control cells are largely or totally destroyed by the virus. The number of remaining viable cells are determined utilizing a calorimetric endpoint. A beneficial antiviral effect is indicated by a response % grater than the virus kill %, with 100% being optimal.
Anti-viral effect: Response (Viable Cells, determined by colorometric
absorbance of formazan dye produced) as % of uninfected controls
Virus Source: HIV1 IIIb; C, Virus producing H9 cells; V, cell free virus
Virus Kill: Infected untreated cells as % of uninfected cell controls
*: Culture redosed with compound after 3 days

HIV-2 protease = experiment: HIV protease cleavage of nonapeptide (HPLC); type: biochemical; conditions: 0.5 μl of 10 μg/μl inhibitor in DMSO per 10 μl reaction; pH 6.5, room temperature; pentapeptide product relative to DMSO control; sampled at ca. 16 and 40 hr (time not given)
Procedure: Activity Against HIV Protease
The assay for proteolyic activity is a modified version of that previously described by Copeland et al., Gene Anal. Tech., 5:109-115 (1988). For each assay to be performed 2 microliters of protease solution (ca. 100 ng) is added to 3 μg of nonapeptide (Val-Ser-Gln-Asn-Tyr-Pro-Ile-Val-Gln-NH2) in 8 μl of 200 mM sodium phosphate, 1 M NaCl, 5% glycerol, 0.25% Nonidet-40, at pH 6.5. This affords a stock solution containing 10 μl per number of reactions. This stock is aliquoted out in 10 μl portions to which 0.5 μl of DMSO (a control is run with each set of assays to compensate for minor experimental variations) or a DMSO solution containing 10 μg/μl of an inhibitor, i.e., any one of the compounds of the present invention, is added. The reactions were incubated at room temperature and 4 μl portions were removed at ca. 16 and 40 hr. intervals. HPLC analysis was performed on a 4.6×250 mm Lichrosorb RP-18 column eluted with a gradient of 0-40% acetonitrile in water (containing 0.05% TFA) over 30 min monitoring absorbance at 206 nm. Progress of the enzymatic cleavage was followed by monitoring the appearance of the pentapeptide (Val-Ser-Gln-Asn-Tyr-OH) cleavage product. The activity is expressed as the amount of the pentapeptide (Val-Ser-Gln-Asn-Tyr-OH) observed relative to the control reaction for that set of assays.
Inhibition of HIV-2 protease

porcine Renin = target: T1, porcine Renin (Sus scrofa, UniProt A0A287APG1); experiment: Porcine Renin cleavage of porcine tetradecapeptide (HPLC); type: biochemical; conditions: 0.5 μl of 50 μg/μl inhibitor in DMSO in 50 μl; pH 6.00, room temperature, 70 min; relative to uninhibited control
T1 construct: purchased Sigma
T1 sequence (A0A287APG1 24-407): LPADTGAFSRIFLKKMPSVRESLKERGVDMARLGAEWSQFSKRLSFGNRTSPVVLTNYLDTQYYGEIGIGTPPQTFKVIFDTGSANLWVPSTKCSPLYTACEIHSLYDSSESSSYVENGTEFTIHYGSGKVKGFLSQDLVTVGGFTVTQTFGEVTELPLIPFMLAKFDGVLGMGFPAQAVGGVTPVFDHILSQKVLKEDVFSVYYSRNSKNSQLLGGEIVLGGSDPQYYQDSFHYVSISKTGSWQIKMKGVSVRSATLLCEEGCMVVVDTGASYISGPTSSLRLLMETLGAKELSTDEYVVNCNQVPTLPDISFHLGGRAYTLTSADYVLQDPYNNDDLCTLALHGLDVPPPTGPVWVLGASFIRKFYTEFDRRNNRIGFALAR
Text: Renin Activity: Porcine Renin Cleavage of Porcine Tetradecapeptide
Proteolytic enzymes are ubiquitous in many living systems. Renin is an asparxyl protease found in mammals which is responsible for the regulation of blood pressure. Structural and functional similarities between Renin and retroviral proteases have been previously noted (Pearl, L. H., Taylor, W. R., (1987) Nature, 329, 351-354). Consequently, successful therapeutic inhibition of retroviral proteases depends on the ability of the inhibitor to inhibit the retroviral enzyme while having a greatly diminished effect on normally occurring enzymes like Renin. The failure to inhibit the desired enzyme selectively may have an adverse effect on normal biochemical functions. The similarity of Renin to retroviral proteases and its viral normal bodily function makes it an attractive system in which to examine inhibitory selectivity.
Renin activity was determined by a method similar to that described above for the HIV protease. A solution containing 0.37 m unit (0.5 μl of stock solution containing 0.75 m unit/μl) of porcine Renin (Sigma) was added to 5 μg of porcine angiotensinogen in 50 μl of 0.1 M citrate-phosphate buffer (pH 6.00) containing 0.25% NP-40. A DMSO solution containing the inhibitor (0.5 μl of a 50 μg/μl solution) was added and the reaction was allowed to incubate at room temperature for 70 min. The entire mixture was analyzed by HPLC chromatographic analysis was perforemd on a 4.6×250 mm Lichrosorb RP-18 column eluting with a gradient of 0-50% acetonitrile in 0.02 M KH2 Po4 (pH 4.7) over 30 min monitoring absorbance at 206 nm. Appearance of both the tetrapeptide and the decapeptide products may be monitored under these conditions. Enzyme activity is expressed as the amount of tetrapeptide produced relative to an uninhibited control, and are summarized in Table 3 below.

[1] = 168 h, read-out: Antiviral Effect (viable cells as % of uninfected controls), run 6, source V (cell free virus), virus kill 26.0%

## OC[C@H]1O[C@H]1COCc1ccccc1 [Example 14, (2R-cis)-3-(Benzyloxymethyl)oxirane Methanol]
HIV1 IIIb; 168 h, read-out: Antiviral Effect (viable cells as % of uninfected controls), run 6, 1 ug/ml, source V (cell free virus), virus kill 50.0%
  viability at 1 µg/mL: 43.5%
HIV1 IIIb; 168 h, read-out: Antiviral Effect (viable cells as % of uninfected controls), run 7, source V (cell free virus), virus kill 50.0%
  viability at 10 µg/mL: 49.5%
HIV1 IIIb; 168 h, read-out: Antiviral Effect (viable cells as % of uninfected controls), run 8, source V (cell free virus), virus kill 16.0%
  viability at 0.1 µg/mL: 17.7%
HIV1 IIIb; 168 h, read-out: Antiviral Effect (viable cells as % of uninfected controls), run 9, source V (cell free virus), virus kill 16.0%
  viability at 0.1 µg/mL: 20.6%
HIV1 IIIb; 168 h, read-out: Antiviral Effect (viable cells as % of uninfected controls), run 10, 4.1 ug/ml, source V (cell free virus), virus kill 29.0%
  viability at 4.1 µg/mL: 28.8%
HIV1 IIIb; 168 h, read-out: Antiviral Effect (viable cells as % of uninfected controls), run 11*, 0.004 ug/ml, source V (cell free virus), virus kill 25.0%, culture redosed with compound after 3 days
  viability at 0.004 µg/mL: 30%
HIV1 IIIb; H9, 168 h, read-out: Antiviral Effect (viable cells as % of uninfected controls), run 1, source C (virus producing H9 cells), virus kill 18.0%
  viability at 0.1 µg/mL: 21.9%
HIV1 IIIb; H9, 168 h, read-out: Antiviral Effect (viable cells as % of uninfected controls), run 2, source C (virus producing H9 cells), virus kill 17.0%
  viability at 10 µg/mL: 53.5%
HIV1 IIIb; H9, 168 h, read-out: Antiviral Effect (viable cells as % of uninfected controls), run 3, source C (virus producing H9 cells), virus kill 17.0%
  viability at 10 µg/mL: 61%
HIV1 IIIb; H9, 168 h, read-out: Antiviral Effect (viable cells as % of uninfected controls), run 4, source C (virus producing H9 cells), virus kill 10.0%
  viability at 0.1 µg/mL: 12.1%
HIV1 IIIb; H9, 168 h, read-out: Antiviral Effect (viable cells as % of uninfected controls), run 5, source C (virus producing H9 cells), virus kill 10.0%
  viability at 10 µg/mL: 10.5%
HIV-2 protease
  Percent Control Cleavage of Nonapeptide HIV-1 Cleavage Site Fragment: 78%

## CCCCCCCOC[C@H]1O[C@H]1CO [Example 17]
HIV1 IIIb; 168 h, read-out: Antiviral Effect (viable cells as % of uninfected controls), run 4, 11.3 ug/ml, source V (cell free virus), virus kill 40.0%
  viability at 11.3 µg/mL: 57.6%
HIV1 IIIb; 168 h, read-out: Antiviral Effect (viable cells as % of uninfected controls), run 5, source V (cell free virus), virus kill 57.0%
  viability at 56.7 µg/mL: 102%
HIV1 IIIb; [1]
  viability at 56.7 µg/mL: 69.2%
HIV1 IIIb; 168 h, read-out: Antiviral Effect (viable cells as % of uninfected controls), run 7*, 1.97 ug/ml, source V (cell free virus), virus kill 28.0%, culture redosed with compound after 3 days
  viability at 1.97 µg/mL: 15.8%
HIV1 IIIb; H9, 168 h, read-out: Antiviral Effect (viable cells as % of uninfected controls), run 1, 113 ug/ml, source C (virus producing H9 cells), virus kill 10.0%
  viability at 113 µg/mL: 31.1%
HIV1 IIIb; H9, 168 h, read-out: Antiviral Effect (viable cells as % of uninfected controls), run 2, source C (virus producing H9 cells), virus kill 15.0%
  viability at 56.7 µg/mL: 53.7%
HIV1 IIIb; H9, 168 h, read-out: Antiviral Effect (viable cells as % of uninfected controls), run 3, source C (virus producing H9 cells), virus kill 15.0%
  viability at 56.7 µg/mL: 83.1%
HIV-2 protease
  Percent Control Cleavage of Nonapeptide HIV-1 Cleavage Site Fragment: 66%

## CCCCCCCOC[C@@H]1O[C@@H]1CO [Example 18, (2R-cis)-3-(Heptyloxymethyl)oxirane Methanol]
HIV1 IIIb; 168 h, read-out: Antiviral Effect (viable cells as % of uninfected controls), run 4, 9.65 ug/ml, source V (cell free virus), virus kill 40.0%
  viability at 9.65 µg/mL: 58.8%
HIV1 IIIb; 168 h, read-out: Antiviral Effect (viable cells as % of uninfected controls), run 5, source V (cell free virus), virus kill 63.0%
  viability at 48.4 µg/mL: 89.8%
HIV1 IIIb; [1]
  viability at 48.4 µg/mL: 49%
HIV1 IIIb; 168 h, read-out: Antiviral Effect (viable cells as % of uninfected controls), run 7, source V (cell free virus), virus kill 20.0%
  viability at 2.4 µg/mL: 29.4%
HIV1 IIIb; 168 h, read-out: Antiviral Effect (viable cells as % of uninfected controls), run 8*, source V (cell free virus), virus kill 25.0%, culture redosed with compound after 3 days
  viability at 2.4 µg/mL: 40.2%
HIV1 IIIb; H9, 168 h, read-out: Antiviral Effect (viable cells as % of uninfected controls), run 1, 96.5 ug/ml, source C (virus producing H9 cells), virus kill 11.0%
  viability at 96.5 µg/mL: 38.6%
HIV1 IIIb; H9, 168 h, read-out: Antiviral Effect (viable cells as % of uninfected controls), run 2, source C (virus producing H9 cells), virus kill 16.0%
  viability at 48.4 µg/mL: 30.7%
HIV1 IIIb; H9, 168 h, read-out: Antiviral Effect (viable cells as % of uninfected controls), run 3, 4.84 ug/ml, source C (virus producing H9 cells), virus kill 10.0%
  viability at 4.84 µg/mL: 17%
HIV-2 protease
  Percent Control Cleavage of Nonapeptide HIV-1 Cleavage Site Fragment: 71%

## CCCCCCCCCCC[C@@H]1O[C@H]1C(=O)O [Example 39, (2R-trans)-3-Undecyloxiranecarboxylic Acid]
Porcine Renin
  Percent control (tetrapeptide produced): 51%
